From patent US12343326B2, “Psychoactive medicines and their use for treating psychiatric and neurological conditions and disorders” (Transcend Therapeutics, Inc., priority 2021, dated 2025)

How the values were obtained:
Experiment in all cases: β-arrestin based GPCR screen (PathHunter / GPCRmax), agonist mode
Assay type in all cases: cell-based
Design in all cases: host or cells: PathHunter cell lines
[1] = target: 168 GPCRs (Homo sapiens, UniProt P32241)
Protocol: (§1) For agonist determination, cells were incubated with sample to induce response. […] Vehicle concentration was 1%.

[2] = target: 168 GPCRs (Homo sapiens, UniProt P35367)
Protocol: as §1

[3] = target: 168 GPCRs (Homo sapiens, UniProt P25024)
Protocol: as §1

[4] = target: T1, 168 GPCRs (Homo sapiens, UniProt P0DMS8); details: ADORA3, Agonist
T1 sequence (P0DMS8 1-318): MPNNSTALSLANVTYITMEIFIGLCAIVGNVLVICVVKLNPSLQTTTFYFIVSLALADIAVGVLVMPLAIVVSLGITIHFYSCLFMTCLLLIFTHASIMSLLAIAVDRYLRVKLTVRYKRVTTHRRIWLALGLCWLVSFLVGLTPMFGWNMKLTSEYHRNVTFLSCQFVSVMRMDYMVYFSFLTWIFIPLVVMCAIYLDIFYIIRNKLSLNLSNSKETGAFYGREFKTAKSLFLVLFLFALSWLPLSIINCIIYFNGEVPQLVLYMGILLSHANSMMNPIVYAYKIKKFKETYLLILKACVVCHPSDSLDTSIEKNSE
Protocol: as §1

[5] = target: 168 GPCRs (Homo sapiens, UniProt P43115)
Protocol: as §1

[6] = target: 168 GPCRs (Homo sapiens, UniProt P41143)
Protocol: as §1

[7] = target: 168 GPCRs (Homo sapiens, UniProt P07550); details: ADRB2, Agonist
Protocol: as §1

[8] = target: 168 GPCRs (Homo sapiens, UniProt P32745)
Protocol: as §1

[9] = target: 168 GPCRs (Homo sapiens, UniProt P35368); details: ADRA1B, Agonist
Protocol: as §1

[10] = target: 168 GPCRs (Homo sapiens, UniProt P41145)
Protocol: as §1

[11] = target: 168 GPCRs (Homo sapiens, UniProt Q99788); details: CMKLR1, Agonist
Protocol: as §1

[12] = target: 168 GPCRs (Homo sapiens, UniProt P08912); details: CHRM5, Agonist
Protocol: as §1

[13] = target: 168 GPCRs (Homo sapiens, UniProt P47872); details: SCTR
Protocol: as §1

[14] = target: 168 GPCRs (Homo sapiens, UniProt P32246); details: CCR1, Agonist
Protocol: as §1

[15] = target: 168 GPCRs (Homo sapiens, UniProt P25101); details: EDNRA
Protocol: as §1

[16] = target: 168 GPCRs (Homo sapiens, UniProt P29371)
Protocol: as §1

[17] = target: 168 GPCRs (Homo sapiens, UniProt P34972)
Protocol: as §1

[18] = target: 168 GPCRs (Homo sapiens, UniProt P20309); details: CHRM3, Agonist
Protocol: as §1

[19] = target: 168 GPCRs (Homo sapiens, UniProt P21728)
Protocol: as §1

[20] = target: 168 GPCRs (Homo sapiens, UniProt P30411); details: BDKRB2; Agonist; 1 uM
Protocol: as §1

[21] = target: 168 GPCRs (Homo sapiens, UniProt P21731); details: TBXA2R
Protocol: as §1

Sequence of 168 GPCRs (Homo sapiens, UniProt Q99788) (Q99788 whole entry): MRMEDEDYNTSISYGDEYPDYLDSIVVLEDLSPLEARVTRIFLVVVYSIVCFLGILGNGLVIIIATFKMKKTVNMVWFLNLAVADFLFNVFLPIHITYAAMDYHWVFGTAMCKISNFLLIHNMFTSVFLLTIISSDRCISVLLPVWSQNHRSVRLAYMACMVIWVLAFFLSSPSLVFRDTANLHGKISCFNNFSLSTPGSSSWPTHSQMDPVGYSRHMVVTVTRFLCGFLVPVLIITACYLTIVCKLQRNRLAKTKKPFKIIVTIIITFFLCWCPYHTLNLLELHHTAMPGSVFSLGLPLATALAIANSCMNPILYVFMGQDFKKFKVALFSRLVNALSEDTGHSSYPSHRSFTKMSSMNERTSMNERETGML
Sequence of 168 GPCRs (Homo sapiens, UniProt P35368) (P35368 whole entry): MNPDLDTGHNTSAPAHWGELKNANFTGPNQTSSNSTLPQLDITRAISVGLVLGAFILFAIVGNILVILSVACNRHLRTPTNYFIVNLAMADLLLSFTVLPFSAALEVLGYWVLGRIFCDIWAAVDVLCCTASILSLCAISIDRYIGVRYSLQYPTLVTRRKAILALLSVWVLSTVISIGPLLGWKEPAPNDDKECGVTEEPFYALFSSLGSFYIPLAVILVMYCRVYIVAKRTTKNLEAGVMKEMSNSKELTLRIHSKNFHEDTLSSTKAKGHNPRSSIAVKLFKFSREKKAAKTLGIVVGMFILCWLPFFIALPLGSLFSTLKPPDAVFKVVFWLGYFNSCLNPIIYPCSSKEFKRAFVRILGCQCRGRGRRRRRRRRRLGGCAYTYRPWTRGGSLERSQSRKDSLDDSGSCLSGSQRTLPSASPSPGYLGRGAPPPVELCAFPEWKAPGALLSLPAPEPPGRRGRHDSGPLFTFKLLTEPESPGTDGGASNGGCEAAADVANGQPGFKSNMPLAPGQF
Sequence of 168 GPCRs (Homo sapiens, UniProt P47872) (P47872 23-440): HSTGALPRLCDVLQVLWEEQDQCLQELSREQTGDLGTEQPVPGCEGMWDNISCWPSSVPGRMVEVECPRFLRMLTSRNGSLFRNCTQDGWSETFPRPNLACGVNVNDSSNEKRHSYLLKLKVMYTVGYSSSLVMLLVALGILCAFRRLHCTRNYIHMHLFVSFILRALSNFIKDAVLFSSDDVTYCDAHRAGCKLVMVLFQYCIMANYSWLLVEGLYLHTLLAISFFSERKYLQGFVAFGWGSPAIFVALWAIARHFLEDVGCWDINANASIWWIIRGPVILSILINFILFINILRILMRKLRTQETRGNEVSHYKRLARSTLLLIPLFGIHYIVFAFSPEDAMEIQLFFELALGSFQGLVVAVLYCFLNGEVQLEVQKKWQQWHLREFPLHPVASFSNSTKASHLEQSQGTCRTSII
Sequence of 168 GPCRs (Homo sapiens, UniProt P21731) (P21731 whole entry): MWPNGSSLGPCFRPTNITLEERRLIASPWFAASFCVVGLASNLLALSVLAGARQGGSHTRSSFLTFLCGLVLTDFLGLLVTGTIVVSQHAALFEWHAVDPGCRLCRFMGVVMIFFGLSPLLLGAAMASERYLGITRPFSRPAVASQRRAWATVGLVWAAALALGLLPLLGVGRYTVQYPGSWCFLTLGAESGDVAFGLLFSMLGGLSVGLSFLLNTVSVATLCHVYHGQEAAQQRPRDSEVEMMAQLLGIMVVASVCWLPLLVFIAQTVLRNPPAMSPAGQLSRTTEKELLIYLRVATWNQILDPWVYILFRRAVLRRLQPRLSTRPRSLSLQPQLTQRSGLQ
Sequence of 168 GPCRs (Homo sapiens, UniProt P25024) (P25024 whole entry): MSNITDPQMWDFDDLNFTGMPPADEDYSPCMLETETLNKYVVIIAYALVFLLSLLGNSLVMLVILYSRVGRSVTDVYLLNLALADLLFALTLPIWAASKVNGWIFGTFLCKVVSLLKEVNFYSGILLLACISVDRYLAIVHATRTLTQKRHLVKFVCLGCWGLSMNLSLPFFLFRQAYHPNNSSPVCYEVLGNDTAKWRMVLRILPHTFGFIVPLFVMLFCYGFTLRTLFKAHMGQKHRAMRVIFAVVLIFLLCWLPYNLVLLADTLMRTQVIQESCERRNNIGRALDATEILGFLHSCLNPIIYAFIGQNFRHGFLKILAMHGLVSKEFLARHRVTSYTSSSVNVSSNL
Sequence of 168 GPCRs (Homo sapiens, UniProt P21728) (P21728 whole entry): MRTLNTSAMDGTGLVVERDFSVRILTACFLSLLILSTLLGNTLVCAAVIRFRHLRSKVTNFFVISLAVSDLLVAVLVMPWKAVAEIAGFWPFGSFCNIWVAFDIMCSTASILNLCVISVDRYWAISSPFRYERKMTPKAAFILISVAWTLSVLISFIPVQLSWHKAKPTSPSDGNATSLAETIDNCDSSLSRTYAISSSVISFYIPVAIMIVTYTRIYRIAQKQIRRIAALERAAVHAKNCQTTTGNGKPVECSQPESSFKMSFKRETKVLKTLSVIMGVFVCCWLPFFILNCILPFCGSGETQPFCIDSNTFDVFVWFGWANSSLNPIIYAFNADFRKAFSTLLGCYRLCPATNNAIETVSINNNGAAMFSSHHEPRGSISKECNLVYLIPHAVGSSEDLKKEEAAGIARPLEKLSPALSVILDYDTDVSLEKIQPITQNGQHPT
Sequence of 168 GPCRs (Homo sapiens, UniProt P32745) (P32745 whole entry): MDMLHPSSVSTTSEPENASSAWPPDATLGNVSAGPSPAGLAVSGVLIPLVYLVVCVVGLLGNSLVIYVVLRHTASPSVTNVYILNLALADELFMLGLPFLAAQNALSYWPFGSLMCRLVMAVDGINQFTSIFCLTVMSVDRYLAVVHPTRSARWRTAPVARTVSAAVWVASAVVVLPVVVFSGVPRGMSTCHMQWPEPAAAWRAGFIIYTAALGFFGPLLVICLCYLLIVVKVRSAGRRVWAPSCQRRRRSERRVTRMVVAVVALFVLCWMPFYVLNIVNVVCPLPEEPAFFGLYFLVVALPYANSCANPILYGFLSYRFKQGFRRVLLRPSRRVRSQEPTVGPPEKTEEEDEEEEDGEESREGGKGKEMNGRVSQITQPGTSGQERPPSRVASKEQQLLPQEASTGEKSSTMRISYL
Sequence of 168 GPCRs (Homo sapiens, UniProt P32246) (P32246 whole entry): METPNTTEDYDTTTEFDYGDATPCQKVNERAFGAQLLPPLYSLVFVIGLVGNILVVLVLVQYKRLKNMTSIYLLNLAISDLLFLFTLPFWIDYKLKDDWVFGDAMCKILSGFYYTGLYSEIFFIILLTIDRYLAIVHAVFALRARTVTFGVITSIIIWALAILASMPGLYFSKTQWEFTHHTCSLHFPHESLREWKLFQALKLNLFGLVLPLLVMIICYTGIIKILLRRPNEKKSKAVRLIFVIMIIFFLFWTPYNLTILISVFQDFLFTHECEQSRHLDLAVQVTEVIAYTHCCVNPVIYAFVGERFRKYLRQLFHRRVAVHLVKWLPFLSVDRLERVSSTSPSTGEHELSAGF
Sequence of 168 GPCRs (Homo sapiens, UniProt P20309) (P20309 whole entry): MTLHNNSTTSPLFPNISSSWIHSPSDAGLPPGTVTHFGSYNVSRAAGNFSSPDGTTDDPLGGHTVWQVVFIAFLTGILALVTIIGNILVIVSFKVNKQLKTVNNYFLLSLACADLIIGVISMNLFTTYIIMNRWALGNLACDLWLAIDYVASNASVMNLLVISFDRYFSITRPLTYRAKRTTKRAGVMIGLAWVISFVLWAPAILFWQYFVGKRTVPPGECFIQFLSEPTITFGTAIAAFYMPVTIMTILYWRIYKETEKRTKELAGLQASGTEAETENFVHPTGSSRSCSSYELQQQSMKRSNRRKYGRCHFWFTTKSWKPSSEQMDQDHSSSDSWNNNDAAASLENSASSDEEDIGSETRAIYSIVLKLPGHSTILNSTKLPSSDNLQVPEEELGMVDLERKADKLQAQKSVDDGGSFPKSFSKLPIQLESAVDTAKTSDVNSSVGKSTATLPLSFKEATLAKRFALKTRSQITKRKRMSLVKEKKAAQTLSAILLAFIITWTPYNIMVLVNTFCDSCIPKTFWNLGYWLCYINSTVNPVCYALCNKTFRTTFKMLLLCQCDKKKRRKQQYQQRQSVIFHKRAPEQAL
Sequence of 168 GPCRs (Homo sapiens, UniProt P32241) (P32241 31-457): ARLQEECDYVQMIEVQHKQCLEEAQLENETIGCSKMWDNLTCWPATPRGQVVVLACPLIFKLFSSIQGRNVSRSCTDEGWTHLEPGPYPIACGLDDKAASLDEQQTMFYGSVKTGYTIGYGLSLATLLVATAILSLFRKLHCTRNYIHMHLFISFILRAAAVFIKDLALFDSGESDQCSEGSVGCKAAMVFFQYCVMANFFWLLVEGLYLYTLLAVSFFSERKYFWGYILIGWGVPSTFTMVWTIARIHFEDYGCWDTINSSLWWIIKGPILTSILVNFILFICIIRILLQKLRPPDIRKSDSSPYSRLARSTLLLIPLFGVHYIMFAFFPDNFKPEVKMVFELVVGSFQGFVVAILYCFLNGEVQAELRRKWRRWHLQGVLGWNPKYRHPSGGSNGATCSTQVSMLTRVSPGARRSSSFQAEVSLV
Sequence of 168 GPCRs (Homo sapiens, UniProt P41145) (P41145 whole entry): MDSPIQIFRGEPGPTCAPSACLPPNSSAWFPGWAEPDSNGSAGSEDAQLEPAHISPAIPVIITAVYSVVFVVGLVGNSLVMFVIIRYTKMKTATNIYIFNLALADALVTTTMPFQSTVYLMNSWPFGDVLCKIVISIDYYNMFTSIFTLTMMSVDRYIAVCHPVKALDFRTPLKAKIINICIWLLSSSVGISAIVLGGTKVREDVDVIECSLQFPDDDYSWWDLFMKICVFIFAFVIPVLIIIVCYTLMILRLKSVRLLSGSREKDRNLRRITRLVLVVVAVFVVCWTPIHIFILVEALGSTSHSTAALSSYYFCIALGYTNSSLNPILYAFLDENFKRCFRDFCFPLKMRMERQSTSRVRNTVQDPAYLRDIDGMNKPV

CNC(C)C(=O)c1ccc2c(c1)OCO2 (centres unmarked) [methylone, 3,4-methylenedioxy-N-methylcathinone]
activity at 10 µM ([1]; VIPR1, Agonist mode, 10 uM): 0.6% | activity at 1 µM ([1]; VIPR1, Agonist, 1 uM): 0.3% | activity at 10 µM ([2]; HRH1, Agonist mode, 10 uM): 2.5% | activity at 1 µM ([2]; HRH1, Agonist, 1 uM): 3% | activity at 10 µM ([3]; CXCR1, Agonist mode, 10 uM): 0.1% | activity at 1 µM ([3]; CXCR1, Agonist, 1 uM): -0.5% | activity at 1 µM ([4]; 1 uM): -4.5% | activity at 10 µM ([4]; 10 uM): -5.3% | activity at 10 µM ([5]; PTGER3, Agonist mode, 10 uM): 1.9% | activity at 1 µM ([5]; PTGER3, Agonist, 1 uM): 4.5% | activity at 10 µM ([6]; OPRD1, Agonist mode, 10 uM): -1.5% | activity at 1 µM ([6]; OPRD1, Agonist, 1 uM): -2% | activity at 1 µM ([7]; 1 uM): 0% | activity at 10 µM ([7]; 10 uM): -0.2% | activity at 10 µM ([8]; SSTR3, Agonist mode, 10 uM): 0.3% | activity at 1 µM ([8]; SSTR3, Agonist, 1 uM): 0.7% | activity at 1 µM ([9]; 1 uM): -3.3% | activity at 10 µM ([9]; 10 uM): -2.9% | activity at 10 µM ([10]; OPRK1, Agonist mode, 10 uM): -4.1% | activity at 1 µM ([10]; OPRK1, Agonist, 1 uM): -6.3% | activity at 1 µM ([11]; 1 uM): -0.2% | activity at 10 µM ([11]; 10 uM): -0.3% | activity at 1 µM ([12]; 1 uM): 7.2% | activity at 10 µM ([12]; 10 uM): 8.7% | activity at 10 µM ([13]; Agonist mode, 10 uM): -1.4% | activity at 1 µM ([13]; Agonist, 1 uM): -2.6% | activity at 1 µM ([14]; 1 uM): -2.6% | activity at 10 µM ([14]; 10 uM): 3.6% | activity at 10 µM ([15]; Agonist mode, 10 uM): 1.4% | activity at 1 µM ([15]; Agonist, 1 uM): 0.3% | activity at 10 µM ([16]; TACR3, Agonist mode, 10 uM): 1.1% | activity at 1 µM ([16]; TACR3, Agonist, 1 uM): 0.8% | activity at 10 µM ([17]; CNR2, Agonist mode, 10 uM): 3.2% | activity at 1 µM ([17]; CNR2, Agonist, 1 uM): 7% | activity at 1 µM ([18]; 1 uM): 6% | activity at 10 µM ([18]; 10 uM): 6% | activity at 10 µM ([19]; DRD1, Agonist mode, 10 uM): -1.6% | activity at 1 µM ([19]; DRD1, Agonist, 1 uM): -1.6% | activity at 1 µM [20]: -3.6% | activity at 10 µM ([21]; Agonist mode, 10 uM): -2.95% | activity at 1 µM ([21]; Agonist, 1 uM): -1.1%
